In patent US20110184178A1, “POLYMORPHS OF 5-(3-(ETHYLSULFONYL)PHENYL)-3,8-DIMETHYL-N-(1-METHYLPIPERIDIN-4-YL)-9H-PYRIDO[2,3-B]INDOLE-7-CARBOXAMIDE AND METHODS OF USE THEREFOR” (Takeda Pharmaceutical Company Limited, priority 2008, published 2011):
Where a name gives a salt, the structure may show the parent alone.

Key:
Assay type in all cases: physicochemical
[1] = Approximate solubility screen of Compound I in different solvents; settings: for solubility: organic solvent or mixture, thermodynamic from solid
Procedure: A solubility screen of Compound I was evaluated in 20 different solvents chosen as MeCN, dioxane, acetone, MtBE, EtOH, EtOAc, IPAc, IPA, THF, 2-MeTHF, MEK, DMF, AcOH, MeOH, cyclohexane, heptane, DCM, toluene, NMP, and DMAc, to select appropriate primary and binary solvents for the polymorph screen. One to four mg of the Compound I was charged to 2-dram clear vials equipped with magnetic stir bars and solvent was added in 250-μL portions with heating to 55° C. until complete dissolution was observed or a maximum of 6 mL was added. […] Solvents and other reagents were of ACS or HPLC grade and were used as received.

[2] = Solubility study of Form A in de-ionized water and 20 mM phosphate buffer at pH 3.2 (HPLC, XRPD of solids); settings: for solubility: thermodynamic from solid
Procedure: Solubility was determined for Form A of Compound I by suspending the material in de-ionized water and 20 mM phosphate buffer at pH 3.2 and ambient temperature. Approximately 40 mg of Form A of Compound I was charged to 2-dram amber vials equipped with magnetic stir bars, followed by the addition of DI water or phosphate buffer (2.0 mL) in one portion. The samples were allowed to equilibrate with stirring for 16 h, followed by centrifugation. An aliquot of the supernatant liquid was analyzed by HPLC, and the solids isolated by filtration and dried under vacuum at ambient temperature for analysis by XRPD. Samples were allowed to stir for an additional 6 days and concentration determined by HPLC.

[3] = Slurry experiments (form by XRPD after slurrying in a solvent); settings: 2.0 mL
Procedure: 50 to 60 mg of Form A of Compound I was weighed out into 2 dram amber vials and the material was slurried in 2 mL of a solvent. The slurry experiments were carried out at either ambient temperature or at 40° C. Samples were obtained from slurries after one day, one week, and two weeks. Tables 15 and 16 detail the results of the slurry experiments.

[4] = Physical characterization of the polymorphs and salt (XRPD, DSC, TGA, 1H-NMR, KF, moisture sorption): stability assessment; settings: solid form
Procedure: Described herein are Form A, Form B, Form C, Form D, Form E, Form F and Form G of Compound I. Various tests were performed in order to physically characterize the polymorphs of Compound I, including X-ray powder diffraction (XRPD), differential scanning calorimetry (DSC), thermogravimetric analysis (TGA), solution proton nuclear magnetic resonance (^1H-NMR), and moisture sorption and desorption analysis (M S/Des). Detailed experimental conditions for each of the analytical techniques are described in the Examples section. […] A summary of these experiments and the results are presented below and in Table 12.

[5] = Moisture-sorption analysis (gravimetric adsorption/desorption, 25° C.)
Procedure: Further, the material gained enough water to form the dihydrate in approximately 45 minutes at 30% RH during adsorption and lost enough water to form the anhydrate at 15% RH during desorption in less than 60 minutes. […] The sample was further allowed to equilibrate at ambient laboratory conditions overnight and reanalyzed by XRPD. […] The moisture sorption experiment of Form C of Compound I provides a curve similar to the Form A curve (FIG. 11). […] Further, the material gained enough water to form the dihydrate in less than 60 minutes at 30% RH during adsorption and lost enough water to form the anhydrate at 15% RH during desorption in approximately 80 minutes. […] Moisture-sorption experiments were carried out on all samples by first drying the sample at 0% RH and 25° C. until an equilibrium weight was reached or for a maximum of four hours. The sample was then subjected to an isothermal (25° C.) adsorption scan from 10 to 90% RH in steps of 10%. Samples were then allowed to equilibrate to an asymptotic weight at each point for a maximum of four hours. Following adsorption, a desorption scan from 85 to 0% RH (at 25° C.) was run in steps of −10% again allowing a maximum of four hours for equilibration to an asymptotic weight. Samples were dried for one hour at 80° C. and the resulting solids analyzed by XRPD.

[6] = Form A slurried in water, 40 ° C.
[7] = Form A slurried in water, Ambient

## CCS(=O)(=O)c1cccc(-c2cc(C(=O)NC3CCN(C)CC3)c(C)c3[nH]c4ncc(C)cc4c23)c1 [Compound I, 5-(3-(ethylsulfonyl)phenyl)-3,8-dimethyl-N-(1-methylpiperidin-4-yl)-9H-pyrido[2,3-b]indole-7-carboxamide]
[1]; 2-Me—THF, 1.6 mg, 5.75 mL, heating to 55° C.
  Soluble: No
[1]; AcOH, 2.1 mg in 0.75 mL, Temp RT
  Soluble: Yes
[1]; AcOH, Temp RT, 2.1 mg in 0.75 mL
  Conc.: 2800 µg/mL
[1]; DCM, 2.6 mg, 4.50 mL, heating to 55° C.
  Soluble: No
[1]; DMA, 2.8 mg in 0.50 mL, Temp 55
  Soluble: Yes
[1]; DMA, Temp 55, 2.8 mg in 0.50 mL
  Conc.: 5600 µg/mL
[1]; DMF, 1.8 mg in 0.50 mL, Temp RT
  Soluble: Yes
[1]; DMF, Temp RT, 1.8 mg in 0.50 mL
  Conc.: >3600 µg/mL
[1]; EtOAc, 2.2 mg, 5.75 mL, heating to 55° C.
  Soluble: No
[1]; EtOH, 1.6 mg in 4.75 mL, Temp 55
  Soluble: Yes
[1]; EtOH, Temp 55, 1.6 mg in 4.75 mL
  Conc.: 340 µg/mL
[1]; Heptane, 1.9 mg, 3.50 mL, heating to 55° C.
  Soluble: No
[1]; IPAC, 2.6 mg, 5.75 mL, heating to 55° C.
  Soluble: No
[1]; MTBE, 1.3 mg, 5.75 mL, heating to 55° C.
  Soluble: No
[1]; MeCN, 1.7 mg in 5.75 mL, Temp 55
  Soluble: Yes
[1]; MeCN, Temp 55, 1.7 mg in 5.75 mL
  Conc.: 300 µg/mL
[1]; MeOH, 1.7 mg in 2.00 mL, Temp 55
  Soluble: Yes
[1]; MeOH, Temp 55, 1.7 mg in 2.00 mL
  Conc.: 850 µg/mL
[1]; NMP, 2.4 mg in 0.50 mL, Temp 55
  Soluble: Yes
[1]; NMP, Temp 55, 2.4 mg in 0.50 mL
  Conc.: 4800 µg/mL
[1]; THF, 1.3 mg in 3.75 mL, Temp 55
  Soluble: Yes
[1]; THF, Temp 55, 1.3 mg in 3.75 mL
  Conc.: 350 µg/mL
[1]; Toluene, 1.8 mg, 3.50 mL, heating to 55° C.
  Soluble: No
[1]; c-Hexane (cyclohexane), 1.8 mg, 3.50 mL, heating to 55° C.
  Soluble: No
[1]; in MeCN, MTBe, EtOAc, IPAc, IPA, THF, MEK, heptane and water
  solubility (in words): Poor solubility
[1]; in MeOH, DMF, DMA, NMP, CHCl3, AcOH and EtOH
  solubility (in words): Good solubility
[1]; in polar solvents including MeCN, EtOH, THF, DMF, AcOH, MeOH, NMP, and DMAc
  solubility (in words): appreciable solubility
[1]; Acetone, 1.8 mg, 5.75 mL, heating to 55° C.
  solubility: < 330 µg/mL
[1]; Dioxane, 1.7 mg, 5.75 mL, heating to 55° C.
  solubility: < 330 µg/mL
[1]; IPA, 1.2 mg, 5.75 mL, heating to 55° C.
  solubility: < 330 µg/mL
[1]; MEK, 1.9 mg, 5.75 mL, heating to 55° C.
  solubility: < 330 µg/mL
[2]; aqueous buffer, 20 mM phosphate buffer at pH 3.2
  solubility: < 100 µg/mL
[2]; de-ionized water, water
  solubility: < 100 µg/mL
[3]; Form A slurried in Acetone, Ambient
  XRPD Results Day 1*: amorphous
[3]; Form A slurried in MEK, Ambient
  XRPD Results Day 1*: amorphous
[3]; Form A slurried in THF, Ambient
  XRPD Results Day 1*: amorphous
[3]; [6]
  XRPD Results Day 1*: amorphous
  XRPD Results Week 1*: amorphous
[3]; [7]
  XRPD Results Day 1*: amorphous
  XRPD Results Week 1*: amorphous

## CCS(=O)(=O)c1cccc(-c2cc(C(=O)NC3CCN(C)CC3)c(C)c3[nH]c4ncc(C)cc4c23)c1 [Form B, 5-(3-(ethylsulfonyl)phenyl)-3,8-dimethyl-N-(1-methylpiperidin-4-yl)-9H-pyrido[2,3-b]indole-7-carboxamide]
[4]
  stability (based on the available characterization data): stable under ambient non-aqueous conditions

## CCS(=O)(=O)c1cccc(-c2cc(C(=O)NC3CCN(C)CC3)c(C)c3[nH]c4ncc(C)cc4c23)c1 [Form C, 5-(3-(ethylsulfonyl)phenyl)-3,8-dimethyl-N-(1-methylpiperidin-4-yl)-9H-pyrido[2,3-b]indole-7-carboxamide]
[2]; during the solubility determination
  form conversion in aqueous media: converted to Form A
[4]
  stability (based on the available characterization data): stable under ambient low humidity conditions
[5]; at 15% RH during desorption
  time to lose enough water to form the anhydrate: approximately 80 minutes
[5]; at 30% RH during adsorption
  time to gain enough water to form the dihydrate: less than 60 minutes
[5]; during both adsorption and desorption, 25° C.
  hydration state in the moisture sorption experiment: convert to a stable dihydrate above 20% RH

## CCS(=O)(=O)c1cccc(-c2cc(C(=O)NC3CCN(C)CC3)c(C)c3[nH]c4ncc(C)cc4c23)c1 [Form D, 5-(3-(ethylsulfonyl)phenyl)-3,8-dimethyl-N-(1-methylpiperidin-4-yl)-9H-pyrido[2,3-b]indole-7-carboxamide]
[4]
  stability (based on the available characterization data): stable under ambient non-aqueous conditions

## CCS(=O)(=O)c1cccc(-c2cc(C(=O)NC3CCN(C)CC3)c(C)c3[nH]c4ncc(C)cc4c23)c1 [Form E, 5-(3-(ethylsulfonyl)phenyl)-3,8-dimethyl-N-(1-methylpiperidin-4-yl)-9H-pyrido[2,3-b]indole-7-carboxamide]
[4]
  stability (based on the available characterization data): stable under ambient non-aqueous conditions

## CCS(=O)(=O)c1cccc(-c2cc(C(=O)NC3CCN(C)CC3)c(C)c3[nH]c4ncc(C)cc4c23)c1 [HPF6 salt of Compound I]
[4]
  stability (based on the available characterization data): stable under ambient conditions
